Reference: ChEMBL document CHEMBL4396887, “Five-Membered N-Heterocyclic Scaffolds as Novel Amino Bioisosteres at γ-Aminobutyric Acid (GABA) Type A Receptors and GABA Transporters” (J Med Chem, 2019)
Active and inactive are the calls of the source. The rule behind the calls is not given here.

Legend:
[1] = molecular target: T1, Gamma-aminobutyric acid receptor subunit alpha-4/beta-2/gamma-2 (Homo sapiens, UniProt P47870+P18507+P48169); assay: Agonist activity at recombinant human GABA-A alpha4beta2gamma2S receptor transiently expressed in human tsA201 cells at >= 100 uM incubated for 30 mins and measured up to 90 secs by FMP dye based FLIPR membrane potential blue assay; type: cell-based
[2] = molecular target: Gamma-aminobutyric acid receptor subunit rho-1 (Homo sapiens, UniProt P24046); assay: Agonist activity at recombinant human GABA-A rho-1 receptor transiently expressed in human tsA201 cells assessed as GABA-induced maximum response incubated for 30 mins and measured up to 90 secs by FMP dye based FLIPR membrane potential blue assay relative to GABA; type: cell-based
Chain of Gamma-aminobutyric acid receptor subunit rho-1 (P24046 whole entry): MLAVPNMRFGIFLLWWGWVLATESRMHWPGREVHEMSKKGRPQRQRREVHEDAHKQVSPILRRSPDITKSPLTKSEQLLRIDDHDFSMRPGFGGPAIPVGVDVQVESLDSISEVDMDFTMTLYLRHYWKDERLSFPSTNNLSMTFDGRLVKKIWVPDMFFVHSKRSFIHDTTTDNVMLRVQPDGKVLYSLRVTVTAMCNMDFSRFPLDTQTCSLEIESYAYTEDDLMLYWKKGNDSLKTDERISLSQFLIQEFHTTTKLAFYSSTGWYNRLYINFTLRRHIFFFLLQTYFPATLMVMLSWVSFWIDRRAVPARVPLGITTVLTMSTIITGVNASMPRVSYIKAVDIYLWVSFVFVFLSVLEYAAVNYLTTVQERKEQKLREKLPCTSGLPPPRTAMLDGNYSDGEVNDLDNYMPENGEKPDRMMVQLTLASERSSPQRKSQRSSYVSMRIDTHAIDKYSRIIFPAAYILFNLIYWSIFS

[3] = molecular target: Gamma-aminobutyric acid receptor subunit alpha-5/beta-2/gamma-2 (Homo sapiens) (UniProt P47870+P18507+P31644); assay: Agonist activity at recombinant human GABA-A alpha5beta2gamma2S receptor transiently expressed in human tsA201 cells assessed as GABA-induced maximum response incubated for 30 mins and measured up to 90 secs by FMP dye based FLIPR membrane potential blue assay relative to GABA; type: cell-based
[4] = molecular target: T2, Sodium- and chloride-dependent GABA transporter 2 (Homo sapiens) (UniProt Q9NSD5); assay: Inhibition of human GAT2 expressed in Flp-In CHO cells assessed as reduction in [3H]GABA uptake at 100 uM incubated for 3 mins by liquid scintillation counting method relative to control; type: cell-based
T2 sequence (whole entry): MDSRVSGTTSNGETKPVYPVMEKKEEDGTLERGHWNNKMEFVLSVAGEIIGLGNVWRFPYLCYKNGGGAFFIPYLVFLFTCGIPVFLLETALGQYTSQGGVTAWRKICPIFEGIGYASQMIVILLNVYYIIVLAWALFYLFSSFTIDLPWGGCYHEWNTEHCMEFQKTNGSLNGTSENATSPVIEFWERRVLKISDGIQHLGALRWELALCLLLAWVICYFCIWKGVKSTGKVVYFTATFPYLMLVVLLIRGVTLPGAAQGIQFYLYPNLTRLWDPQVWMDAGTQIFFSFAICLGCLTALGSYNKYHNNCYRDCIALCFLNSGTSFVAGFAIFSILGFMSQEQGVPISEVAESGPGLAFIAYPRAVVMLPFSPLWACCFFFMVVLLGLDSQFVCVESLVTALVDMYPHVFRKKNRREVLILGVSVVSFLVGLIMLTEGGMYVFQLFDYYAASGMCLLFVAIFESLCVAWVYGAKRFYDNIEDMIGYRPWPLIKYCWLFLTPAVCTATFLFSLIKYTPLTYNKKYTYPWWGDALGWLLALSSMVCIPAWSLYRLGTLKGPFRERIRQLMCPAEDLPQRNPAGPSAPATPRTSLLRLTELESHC

[5] = species: Homo sapiens
[6] = molecular target: T3, Sodium- and chloride-dependent GABA transporter 3 (Homo sapiens) (UniProt P48066); assay: Inhibition of human GAT3 expressed in Flp-In CHO cells assessed as reduction in [3H]GABA uptake at 100 uM incubated for 3 mins by liquid scintillation counting method relative to control; type: cell-based
T3 sequence (whole entry): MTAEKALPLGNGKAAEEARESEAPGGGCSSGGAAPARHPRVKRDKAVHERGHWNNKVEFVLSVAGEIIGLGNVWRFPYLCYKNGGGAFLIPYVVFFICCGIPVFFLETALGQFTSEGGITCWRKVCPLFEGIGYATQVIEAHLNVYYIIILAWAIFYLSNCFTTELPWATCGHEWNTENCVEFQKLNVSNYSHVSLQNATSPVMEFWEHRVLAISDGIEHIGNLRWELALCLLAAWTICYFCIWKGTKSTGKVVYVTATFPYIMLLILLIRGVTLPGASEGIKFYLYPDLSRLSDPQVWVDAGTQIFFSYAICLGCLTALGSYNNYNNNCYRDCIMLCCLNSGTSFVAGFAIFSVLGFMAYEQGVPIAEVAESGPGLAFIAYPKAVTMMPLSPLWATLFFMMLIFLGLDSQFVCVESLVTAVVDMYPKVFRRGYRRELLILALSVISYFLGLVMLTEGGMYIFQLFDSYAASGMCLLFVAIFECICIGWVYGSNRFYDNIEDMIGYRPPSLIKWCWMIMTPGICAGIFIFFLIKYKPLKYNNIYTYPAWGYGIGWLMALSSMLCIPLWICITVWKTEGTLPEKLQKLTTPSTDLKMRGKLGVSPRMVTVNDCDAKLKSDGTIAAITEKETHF

[7] = molecular target: T1, Gamma-aminobutyric acid receptor subunit alpha-4/beta-2/gamma-2; assay: Agonist activity at recombinant human GABA-A alpha4beta2gamma2S receptor transiently expressed in human tsA201 cells assessed as GABA-induced maximum response incubated for 30 mins and measured up to 90 secs by FMP dye based FLIPR membrane potential blue assay relative to GABA; type: cell-based
[8] = molecular target: T4, Sodium- and chloride-dependent betaine transporter (Homo sapiens) (UniProt P48065); assay: Inhibition of human BGT1 expressed in Flp-In CHO cells assessed as reduction in [3H]GABA uptake at 100 uM incubated for 3 mins by liquid scintillation counting method relative to control; type: cell-based
T4 sequence (whole entry): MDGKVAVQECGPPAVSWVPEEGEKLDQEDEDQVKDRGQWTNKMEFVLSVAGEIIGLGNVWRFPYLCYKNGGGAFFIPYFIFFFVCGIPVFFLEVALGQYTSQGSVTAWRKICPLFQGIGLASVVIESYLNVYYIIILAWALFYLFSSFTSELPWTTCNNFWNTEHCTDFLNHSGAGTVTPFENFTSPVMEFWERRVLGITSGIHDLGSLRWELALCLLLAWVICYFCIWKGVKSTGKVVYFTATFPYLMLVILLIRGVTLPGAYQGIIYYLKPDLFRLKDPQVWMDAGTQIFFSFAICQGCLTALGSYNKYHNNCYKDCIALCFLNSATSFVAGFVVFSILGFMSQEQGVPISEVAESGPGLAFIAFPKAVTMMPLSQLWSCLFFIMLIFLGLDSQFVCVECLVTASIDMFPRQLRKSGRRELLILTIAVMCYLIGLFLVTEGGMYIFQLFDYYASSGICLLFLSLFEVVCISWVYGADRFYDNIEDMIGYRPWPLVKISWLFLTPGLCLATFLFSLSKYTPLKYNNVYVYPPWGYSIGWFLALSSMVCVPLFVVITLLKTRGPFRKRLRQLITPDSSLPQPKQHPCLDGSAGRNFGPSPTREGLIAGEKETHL

[9] = molecular target: T5, GABA-A receptor; alpha-1/beta-2/gamma-2 (Homo sapiens) (UniProt P14867+P47870+P18507); assay: Agonist activity at recombinant human GABA-A alpha1beta2gamma2S receptor transiently expressed in human tsA201 cells assessed as GABA-induced maximum response incubated for 30 mins and measured up to 90 secs by FMP dye based FLIPR membrane potential blue assay relative to GABA; type: cell-based
[10] = molecular target: T5, GABA-A receptor; alpha-1/beta-2/gamma-2 (Homo sapiens); assay: Agonist activity at recombinant human GABA-A alpha1beta2gamma2S receptor transiently expressed in human tsA201 cells at >= 10 uM incubated for 30 mins and measured up to 90 secs by FMP dye based FLIPR membrane potential blue assay; type: cell-based
[11] = species: Homo sapiens; assay: Agonist activity at recombinant human GABA-A alpha3beta2gamma2S receptor transiently expressed in human tsA201 cells at >= 30 uM incubated for 30 mins and measured up to 90 secs by FMP dye based FLIPR membrane potential blue assay; type: cell-based
[12] = species: Homo sapiens; assay: Agonist activity at recombinant human GABA-A alpha3beta2gamma2S receptor transiently expressed in human tsA201 cells assessed as GABA-induced maximum response incubated for 30 mins and measured up to 90 secs by FMP dye based FLIPR membrane potential blue assay relative to GABA; type: cell-based
[13] = molecular target: T1, Gamma-aminobutyric acid receptor subunit alpha-4/beta-2/gamma-2; assay: Agonist activity at recombinant human GABA-A alpha4beta2gamma2S receptor transiently expressed in human tsA201 cells incubated for 30 mins and measured up to 90 secs by FMP dye based FLIPR membrane potential blue assay; type: cell-based
[14] = molecular target: Sodium- and chloride-dependent GABA transporter 1 (Homo sapiens, UniProt P30531); assay: Inhibition of human GAT1 expressed in Flp-In CHO cells assessed as reduction in [3H]GABA uptake at 100 uM incubated for 3 mins by liquid scintillation counting method relative to control; type: cell-based
Chain of Sodium- and chloride-dependent GABA transporter 1 (P30531 whole entry, looked up): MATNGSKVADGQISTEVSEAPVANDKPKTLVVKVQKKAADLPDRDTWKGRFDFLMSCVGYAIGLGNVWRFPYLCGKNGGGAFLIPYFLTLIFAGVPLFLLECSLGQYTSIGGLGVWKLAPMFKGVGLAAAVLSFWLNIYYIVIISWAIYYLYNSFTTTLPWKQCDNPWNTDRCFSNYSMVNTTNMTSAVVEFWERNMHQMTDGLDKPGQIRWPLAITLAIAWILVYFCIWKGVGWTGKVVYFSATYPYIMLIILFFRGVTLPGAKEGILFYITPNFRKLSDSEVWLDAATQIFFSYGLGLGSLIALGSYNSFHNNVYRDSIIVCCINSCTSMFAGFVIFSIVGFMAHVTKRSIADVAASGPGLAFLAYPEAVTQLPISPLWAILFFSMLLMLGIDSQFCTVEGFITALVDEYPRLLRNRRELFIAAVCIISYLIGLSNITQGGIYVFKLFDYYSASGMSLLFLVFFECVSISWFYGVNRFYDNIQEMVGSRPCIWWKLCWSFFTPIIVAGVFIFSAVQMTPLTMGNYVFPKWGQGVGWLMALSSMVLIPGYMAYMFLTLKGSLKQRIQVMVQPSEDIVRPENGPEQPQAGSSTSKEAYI

[15] = molecular target: T5, GABA-A receptor; alpha-1/beta-2/gamma-2 (Homo sapiens); assay: Agonist activity at recombinant human GABA-A alpha1beta2gamma2S receptor transiently expressed in human tsA201 cells incubated for 30 mins and measured up to 90 secs by FMP dye based FLIPR membrane potential blue assay; type: cell-based

Activity [1]: Active
Rmax [2]: 31%
Rmax [3]: 34%
inhibition [4]: > 30%
pEC50 [5]: inactive
inhibition [6]: > 30%
Rmax [7]: inactive
inhibition [8]: > 30%
Rmax [9]: inactive
Activity [10]: Active
pEC50 [13]: inactive
inhibition [14]: > 30%
pEC50 [15]: inactive
SMILES: CC(C(=O)O)C1CSC(N)=N1 (stereo in doubt; l-10b)
Activity [11]: Active
Rmax [12]: inactive
